Laboratory results: patent US7771426B2, “Bone treatment instrument and method” (University Health Network, priority 2004, dated 2010)
Entries after “also recorded” stand apart in the source; their conditions may differ.

What was measured:
MT-1 cells = assay: PDT effect on in vitro MT-1 cells (SRB assay); assay type: cell-based, human
Description: Method: MT-1 cells were grown and maintained in RPMI media containing penicillin and streptomycin with 10% fetal bovine serum at 37 degrees Celsius. Once the cells had reached subconfluence they were resuspended in free RPMI. The cells were harvested using 0.05% trypsin—0.05 mM EDTA solution. Cells were then counted with a hemocytometer and plated at 2×10^5 cells/ml in a 96 well plate. BPD-MA was then added to the individual wells at a concentration of 1 ug/ml or 10 ug/ml. […] Following treatment the cells were allowed to survive for 24 hours following which an SRB assay was performed to establish the number of viable cells remaining. Briefly, cells were fixed in 10% trichloroacetic acid and stained with a […] solution selectively staining viable cells. A spectrophotometer was then used to assess the absorbance of 540 nm light within individual wells of the 96 well plate which was correlated to the number of remaining cells following treatment.

[1] = Effect of light dose on the rat spinal cord, spinal nerves and peripheral nerves (hind leg paralysis); assay type: in vivo, mu/mu nude rats
Source text: (§1) Method: Thirty mu/mu nude rats were used in this part of the study. The rats received a left ventricular intracardiac injection with MT-1 cells as described earlier. At day 21 post injection each animal was anesthetized with 2% halothane/air mixture and placed on a custom made radiolucent stereotactic jig in the left lateral decubitus position. Prior to this it was established by histological methods that animals with tumors contained tumor in most vertebral bodies and long bones. Because lesions within the vertebral bodies could not be detected by fine detail radiography, T12 and L4 vertebrae were selected as representative levels for treatment. An 18 g needle was placed on the cortex of the targeted vertebrae or long bone with the use of a mini C-arm image intensifier. A 300 mW diode laser coupled to a 200 um fiber was used to deliver 690 nm light. BPD-MA was administered intravenously at a dose of 2 mg/kg prior to the administration of the light dose. […] Light doses ranged from 25 J to 150 J. Light was delivered at 150 mW for all treatments and the effects of different drug light intervals and different light doses using a fixed drug concentration were evaluated. The animals were examined for paralysis post treatment. The animals were sacrificed using CO2 inhalation. Vertebrae were then harvested and fixed in 10% formalin for 7 days. Micro-CT images were obtained and then the samples were decalcified in 10% formic acid for 7 days. The tissue was then blocked and paraffin embedded and 10 um sections were cut. The sections were analyzed under light microscopy using H&E staining as well as TUNEL and human EGF-r immunohistochemistry. The area of effect as denoted by necrosis and apoptosis was identified and measured using a Nikon slide scanner and Image Pro software.

[2] = test system: MT-1 cells, a human breast cancer cell line; assay: Effect of PDT in vertebrae and long bones with metastases (area of effect, histology); assay type: in vivo, mu/mu nude rats
Source text: as §1

[3] = pig, in vivo
Description: In this study, 50 kg pigs were used. The pigs were pre-anesthetized with ketamine/xylazine 20/2 mg/Kg IM for induction. An IV line was established and 0.9% saline solution was run at 5 ml/Kg/hr. Verteporfin was administered through the IV line using an infusion pump. The pigs were intubated and maintained on a ventilator with isofluorane/nitrous oxide inhalant by animal care professionals. The pigs were placed prone on a radiolucent surgical table with appropriate bolsters for support and padding. A sterile prep was made with betadine soap and scrub and prep solution. A small stab incision was made over the lumbothoracic spine of the pig.
Placement into the vertebral body through a transpedicular and parapedicular approach was facilitated by the use of a CT-Carm. The L1 and L2 vertebrae were targeted.
A cannulated exchange sheath was placed over the guide rod and inserted through the incision. The guide rod was then removed, and a fiber optic cable sheath was then inserted down the cannula of the exchange sheath. […] The cannulated bone screw assembly was pushed down the cannulated exchange sheath. […]
Detector and diffusing fibers were placed in the same transverse plane. The diffusing fiber was moved incrementally with respect to the detector fiber and differences in power were measured at five different distances from the detector source using a computer aided photomultiplier tube. […]

[4] = test system: MT-1luc+ metastatic lesions; assay: Targeted bioluminescent lesions, pre and post-PDT bioluminescent imaging; assay type: in vivo, nude mu/mu rats
Description: Method: Twenty nude mu/mu (Harlan) female rats (4-6 weeks of age) were used in this part of the study. The protocol was in accordance with the Canadian Council on Animal Care prior to initiation. Prior to injection each animal was anesthetized with 2% halothane/air mixture in a sterile environment. Twenty animals were used for injection. The chest was prepared with alcohol and 2×10^6 MT-1luc+ cells, a human breast cancer cell line carrying the luciferase reporter gene, were injected into the left ventricle using a 1 ml syringe with a 26 g needle. Pulsatile blood in the syringe was ensured prior to each injection. The animals were placed back into their cages and fed water and rat chow ad libitum. At day 18 the animals were imaged using the Xenogen IVIS system. To do this 100 mg/kg luciferin was injected into the peritoneal cavity of each animal and each animal was imaged 5 minutes following injection for a 1 to 5 minute image acquisition period. The animals were then imaged on the same custom made stereotactic radiolucent jig using a mini-C-arm image intensifier which allowed correlation of the bioluminescent signal to the vertebrae. FIGS. 1A-C show stereotactic targeting of bioluminescent metastatic lesions using a mini-C-arm image intensifier. FIG. 1A is a bioluminescent overlay image of a nude rat with metastatic lesions on a radio lucent stereotactic jig. FIG. 1B is a fluoroscan image of markers placed along the grid of the stereotactic jig in correlation to the bioluminescent metastases and resulting in localization of the lesion.
The lesions were then targeted and treated with 25 J or 150 J at a 3 hour drug light interval. The animals were then re-imaged with the Xenogen IVIS system 48 hours post treatment in the stereotactic frame. Signal intensity (photons/second/cm^2) at the targeted site before treatment was compared to signal intensity following treatment and compared to lesions not treated using Igor Pro software (Alameda, Calif.). The animals were then sacrificed using CO2 inhalation and the spines and long bones were harvested. Samples were placed in 10% formalin for 7 days and micro-CT images of the vertebrae and long bones were obtained. The vertebrae were examined histologically using H&E staining and immunohistologically with human EGF-r and TUNEL stains as described earlier. ANOVA Bonferroni and two-tailed paired T-test statistical techniques were applied.

[5] = Treatment groups: deaths of rats; assay type: in vivo, mu/mu nude rats
[6] = test system: orthotopic chondrosarcoma and fibrosarcoma tumor models; conditions: 4 weeks post treatment; 15 minute and 3 hour drug light interval; cited from earlier work
[7] = BPD uptake in the serum and spinal cord (fluorimetry, fluorescent microscopy); assay type: in vivo, rats (Sprague-Dawley)
Description: Method: BPD-MA was administered to 10 rats (Sprague-Dawley, 150 gm) through a tail vein injection. Animals were then sacrificed using CO2 inhalation overdose at 16 minutes, 3 hrs, 6 hrs and 24 hrs following injection. Control animals without BPD-MA were euthanized in a similar fashion. Serum samples and spinal cord tissue samples were harvested from the animals at the time of euthanasia. A segment of spine was also fixed in 10% formalin for 7 days followed by decalcification for 7 days in 10% formic acid for fluoroscopic microscopic analysis. A control assay determined that BPD-MA fluorescence was not affected by formic acid. BPD-MA concentration within the serum and spinal cord tissue was then determined using fluorimetry. Briefly, the samples were solubilized and the samples were tested with excitation and emission spectra specific to BPD-MA. The fluorescence of the drug within the tissue was correlated to the specific uptake of the drug within the tissue. Fluorescent microscopy was also used to visualize the presence or absence of BPD-MA within the vertebrae and spinal cord at 1 hour, 3 hours and 24 hours.

[8] = 25 J, drug-light interval 3 hrs
[9] = 50 J, drug-light interval 3 hrs
[10] = 75 J, drug-light interval 0.75 hrs
[11] = 75 J, drug-light interval 3 hrs
[12] = 100 J, drug-light interval 3 hrs
[13] = 150 J, drug-light interval 3 hrs

Which “Mean (absorbance), SRB assay” value (MT-1 cells; Group 1: drug 1 ug/ml, light 200 J/cm^2, 690 nm, 8 hour incubation) does the source give for “benzoporphyrin derivative monoacid ring A [BPD-MA]” here?
The value was “.2923”.

What about the “Mean (absorbance), SRB assay” value (MT-1 cells; Group 2: drug 1 ug/ml, light 25 J/cm^2) of the same substance?
Its value is “.1946”.

What about the “Mean (absorbance), SRB assay” value (MT-1 cells; Group 3: drug 10 ug/ml, light 200 J/cm^2) of the same substance?
Its value is “.2558”.

And the “Mean (absorbance), SRB assay” value (MT-1 cells; Group 4: drug 10 ug/ml, light 25 J/cm^2)?
Its value is “.2049”.

And the “Mean (absorbance), SRB assay” value (MT-1 cells; Group 7: drug 1 ug/ml, no light)?
Its value is 1.2392.

And the “difference in absorbance versus untreated wells” value (MT-1 cells; drug only)?
Its value is “No significant difference”.

And the “difference in absorbance versus untreated wells” value (MT-1 cells; wells treated with light and drug)?
The value was “significant difference”.

What about the “Hind Leg Paralysis (animals)” value ([1]; 25 J, T12, drug light interval 3 hr, N = 5) of the same substance?
Its value is 0.

What about the “Hind Leg Paralysis (animals)” value ([1]; 50 J, T12, drug light interval 3 hr, N = 5) of the same substance?
Its value is 2 unilateral.

And the “Hind Leg Paralysis (animals)” value ([1]; 75 J, T12, drug light interval 3 hr, N = 4)?
Its value is 1 bilateral.

And the “Hind Leg Paralysis (animals)” value ([1]; 100 J, T12, drug light interval 3 hr, N = 3)?
The value was 2 unilateral.

And the “Hind Leg Paralysis (animals)” value ([1]; 125 J, T12, drug light interval 3 hr, N = 2)?
The value was 1 bilateral.

What about the “Hind Leg Paralysis (animals)” value ([1]; 150 J, T12, drug light interval 0.25 hr, N = 4) of the same substance?
Its value is 4.

And the “Hind Leg Paralysis (animals)” value ([1]; 150 J, T12, drug light interval 3 hr, N = 4)?
Its value is 3 bilateral.

What about the “Antero-Posterior dimension of effect” value [2, 8] of the same substance?
The value was 2.62 mm.

What about the “Rostral-Caudal dimension of effect” value [2, 8] of the same substance?
The value was 4.59 mm.

And the Area of effect ([2]; 25 J, drug-light interval 3 hrs, 2 mg/kg i.v.)?
Its Area of effect is 8.435 mm^2.

And the “Antero-Posterior dimension of effect” value [2, 9]?
The value was 3.89 mm.

What about the Area of effect [2, 9] of the same substance?
Its Area of effect is 15.04 mm^2.

What about the “Rostral-Caudal dimension of effect” value [2, 9] of the same substance?
The value was 5.66 mm.

What about the “Antero-Posterior dimension of effect” value [2, 10] of the same substance?
The value was 5.05 mm.

What about the Area of effect [2, 10] of the same substance?
Its Area of effect is 82.47 mm^2.

And the “Rostral-Caudal dimension of effect” value [2, 10]?
Its value is 17.47 mm.

And the “Antero-Posterior dimension of effect” value [2, 11]?
Its value is 5.09 mm.

And the Area of effect [2, 11]?
The Area of effect was 52.38 mm^2.

And the “Rostral-Caudal dimension of effect” value [2, 11]?
The value was 11.67 mm.

And the “Antero-Posterior dimension of effect” value [2, 12]?
The value was 5.05 mm.

What about the Area of effect [2, 12] of the same substance?
The Area of effect was 45.49 mm^2.

What about the “Rostral-Caudal dimension of effect” value [2, 12] of the same substance?
Its value is 13.8 mm.

What about the “Antero-Posterior dimension of effect” value [2, 13] of the same substance?
The value was 5.78 mm.

And the Area of effect [2, 13]?
The Area of effect was 80.53 mm^2.

And the “Rostral-Caudal dimension of effect” value [2, 13]?
Its value is 13.05 mm.

And the “diameter of largest area of effect” value ([2]; 200 um fiber optical cable, treatment time 16 minutes)?
The value was 2.2 cm.

And the “ablation of tumor tissue” value ([2]; 24 hour drug light interval)?
Its value is “No effect; also recorded: no difference”.

And the “effect on tumor, bone, bone marrow or spinal cord” value ([2]; drug only, no light)?
The value was “did not affect”.

What about the “complications attributed to the PDT” value [3] of the same substance?
The value was “no hindleg paralysis”.

What about the “decrease in tumor growth compared to control lesions” value ([4]; 25 J, 3 hour drug light interval) of the same substance?
Its value is 66%.

What about the “PostRx/PreRx, Rx Area” value [4, 8] of the same substance?
The value was 1.25.

And the “reduction of bioluminescent signal from the targeted site” value ([4]; 150 J, 3 hour drug light interval, 48 hours following treatment)?
The value was 87%.

And the “decrease in tumor growth compared to control lesions” value ([4]; 150 J, 3 hour drug light interval, one treatment)?
The value was 99.8%.

What about the “PostRx/PreRx, Rx Area” value ([4]; 150 J, drug light interval 3 hrs) of the same substance?
The value was 0.139.

What about the “Mean Count Rx Area” value ([4]; Post-PDT (48 hours), 25 J, drug-light interval 3 hrs) of the same substance?
Its value is 2.33 × 10^4.

And the “Mean Count Rx Area” value ([4]; Post-PDT (48 hours), 150 J, drug light interval 3 hrs)?
Its value is 1.42 × 10^3.

What about the “Mean Count Rx Area” value ([4]; Pre-PDT, 25 J, drug-light interval 3 hrs (n = 2)) of the same substance?
Its value is 1.86 × 10^4.

What about the “Mean Count Rx Area” value ([4]; Pre-PDT, 150 J, drug light interval 3 hrs (n = 5)) of the same substance?
The value was 1.02 × 10^4.

What about the “Death During PDT (animals)” value ([5]; MT-1 group, n = 20) of the same substance?
The value was 0.

What about the “Death Following Verteporfin Injection (animals)” value ([5]; MT-1 group, n = 20) of the same substance?
Its value is 1.

What about the “Death During PDT (animals)” value ([5]; MT-1luc+ group, n = 30) of the same substance?
Its value is 1.

And the “Death Following Verteporfin Injection (animals)” value ([5]; MT-1luc+ group, n = 30)?
The value was 2.

And the lesions completely ablated [6]?
Its lesions completely ablated is 33%.

What about the “BPD-MA fluorescence in bone marrow” value ([7]; 1 hour) of the same substance?
The value was “contained signal”.

And the “BPD-MA fluorescence in spinal cord” value ([7]; 1 hour)?
The value was “no drug being present”.

And the “BPD-MA fluorescence in bone marrow” value ([7]; 3 hours)?
The value was “intense signal”.

What about the “BPD-MA fluorescence in spinal cord” value ([7]; 3 hours) of the same substance?
The value was “intense signal”.

And the “fluorescence of the drug within the spinal cord and vertebrae” value ([7]; 24 hours)?
The value was “returned to baseline levels”.

And the serum drug concentration ([7]; after 3 hours)?
The serum drug concentration was “began to decline”.

What about the serum drug concentration ([7]; by 24 hours post injection) of the same substance?
Its serum drug concentration is “returned to baseline”.

And the “uptake of BPD-MA in spinal cord” value ([7]; drug uptake studies (fluorimetry))?
The value was “minimal uptake”.

What about the “delay of uptake into the spinal cord” value ([7]; fluorescence microscopy) of the same substance?
Its value is “greater than 1 hour”.

What about the serum drug concentration ([7]; over 15 minutes post tail vein injection) of the same substance?
The serum drug concentration was “rapid increase”.
